No end group written: not given here.
What was measured:
[1] = Liposome leakage assay (carboxyfluorescein release); settings: for CF release from liposomes: 10 mM Tris-buffer
Excerpt: The liposomes investigated were anionic (DOPE/DOPG 75/25 mol/mol). DOPG (1,2-Dioleoyl-sn-Glycero-3-Phosphoglycerol, monosodium salt), and DOPE (1,2-dioleoyl-sn-Glycero-3-phoshoetanolamine) were all from Avanti Polar Lipids (Alabaster, USA) and of >99% purity. Due to the long, symmetric and unsaturated acyl chains of these phospholipids, several methodological advantages are reached. In particular, membrane cohesion is good, which facilitates very stable, unilamellar, and largely defect-free liposomes (observed from cryo-TEM) and well defined supported lipid bilayers (observed by ellipsometry and AFM), allowing detailed values on leakage and adsorption density to be obtained. The lipid mixtures were dissolved in chloroform, after which solvent was removed by evaporation under vacuum overnight. Subsequently, 10 mM Tris buffer, pH 7.4, was added together with 0.1 M carboxyfluorescein (CF) (Sigma, St. Louis, USA). After hydration, the lipid mixture was subjected to eight freeze-thaw cycles consisting of freezing in liquid nitrogen and heating to 60° C. Unilamellar liposomes of about Ø140 nm were generated by multiple extrusions through polycarbonate filters (pore size 100 nm) mounted in a LipoFast miniextruder (Avestin, Ottawa, Canada) at 22° C. Untrapped CF was removed by two subsequent gel filtrations (Sephadex G-50, GE Healthcare, Uppsala, Sweden) at 22° C., with Tris buffer as eluent. CF release from the liposomes was determined by monitoring the emitted fluorescence at 520 nm from a liposome dispersion ([…] in 10 mM Tris, pH 7.4). An absolute leakage scale was obtained by disrupting the liposomes at the end of each experiment through addition of 0.8 mM Triton X-100 (Sigma-Aldrich, St. Louis, USA). A SPEX-fluorolog 1650 0.22-m double spectrometer (SPEX Industries, Edison, USA) was used for the liposome leakage assay in Tris buffer in the absence and presence of liposomes under conditions described above. Measurements were performed in triplicate at 37° C.
The liposomes investigated were either zwitterionic (DOPC/cholesterol 60/40 mol/mol or DOPC without cholesterol) or anionic (DOPE/DOPG 75/25 mol/mol). DOPG (1,2-Dioleoyl-sn-Glycero-3-Phosphoglycerol, monosodium salt), DOPC (1,2-dioleoyl-sn-Glycero-3-phoshocholine), and DOPE (1,2-dioleoyl-sn-Glycero-3-phoshoetanolamine) were all from Avanti Polar Lipids (Alabaster, USA) and of >99% purity, while cholesterol (>99% purity), was from Sigma-Aldrich (St. Louis, USA). Due to the long, symmetric and unsaturated acyl chains of these phospholipids, several methodological advantages are reached. […] CF release from the liposomes was determined by monitoring the emitted fluorescence at 520 nm from a liposome dispersion (10 mM lipid in 10 mM Tris, pH 7.4). […]

S. pyogenes = type: cell-based
Method: MIC assay was carried out by a microtiter broth dilution method as previously described in the NCSLA guidelines (Wiegand, I., Hilpert, K. & Hancock, R. E. Agar and broth dilution methods to determine the minimal inhibitory concentration (MIC) of antimicrobial substances. Nat Protoc 3, 163-175 (2008)). In brief, fresh overnight colonies were suspended to a turbidity of 0.5 units and further diluted in Mueller-Hinton broth (Becton Dickinson). For determination of MIC, peptides were dissolved in water at concentration 10 times higher than the required range by serial dilutions from a stock solution. Ten μl of each concentration was added to each corresponding well of a 96-well microtiter plate (polypropylene, Costar Corp.) and 90 μl of bacteria (1×10^5) in MH medium added. The plate was incubated at 37° C. for 16-18 h. MIC was taken as the lowest concentration where no visual growth of bacteria was detected.

Row | Sequence | Time within which ~80% of the maximal CF release occurred [1] [min] | CF release from liposomes [1] | MIC (S. pyogenes) [µM]
1 | KYEITTIHNLFRKLTHRLFRR [KYE21] | 5 to 10 | caused CF release | –
2 | KYEITTIHNLFRKLTHRLFRRNFGYTLR [KYE28] | – | – | 10
3 | NLFRKLTHRLFRRNFGYTLR [NLF20] | 5 to 10 | caused CF release | 2.5

From patent US9169315B2, “Heparin cofactor II fragments with anti-inflammatory and anti-coagulant activity” (XIMMUNE AB, priority 2009, dated 2015)
